Results from patent US8969294B2 (Istituto di Recerche di Biologia Molecolare P. Angeletti …, priority 2008, dated 2015).

Legend:
[1] = tested on: hormone sensitive lipase (HSL); assay: Western blot of WAT HSL phosphorylation; format: in vivo, mice; details: one month treatment
Method: Adipose tissue was placed in a 1.5-ml microfuge tube and lysed in ice cold RIPA buffer (1×PBS, 1% Nonidet P40, 0.5% sodium doxycholate, 0.1% SDS with 50 mM NaF, […], 0.1 mM Na Vanadate, 20 μg/ml Aprotinin, 10 μg/ml Leupeptin) using a tissue lyser (Retsch, Inc Newtown, Pa. Cat. #85210) at 30 hz for 3 min. Samples were spun at 12,000 rpm for 15 min (4° C.) at which time the internatant was removed to a new tube and sonicated for 15 sec on ice. Samples were spun at 14,000 rpm for 10 min (4° C.) and the internatant was collected to a new tube. Samples were again spun at 19,000 rpm for 10 min (4° C.) and the internatant collected to a new tube. An aliquot of sample was then taken for protein assay. Samples were then boiled in 4×SDS/DTT buffer for 2 min. 50 μg of protein from cell lysate were subjected to SDS/PAGE on 9% (w/v) acrylamide resolving gels and transferred to Hybond ECL nictrocellulose membranes. […] After washing, primary antibody detection was performed using either HRP-conjugated anti-(rabbit IgG) or anti-(mouse IgG) (HRP-conjugated anti-rabbit and anti-mouse secondary antibodies were purchased from Bio-Rad (170-6515 & 170-6516)) and detected using enhanced chemiluminescence (Amersham Biosciences) and exposed to CL-Xposure film (Pierce).

[2] = Diet-induced obese rats, once-a-week injection, 3-week treatment; format: in vivo; details: 70 nmol/kg/week, 3 weeks
Method: To determine if the principal phenomenon generalizes across species, both compounds were administered to diet-induced obese rats (mean weight 777.4+/−2.1 g, dose 70 nmol/kg/week, once-a-week injection, 3-week treatment).

[3] = Diet-induced obese C57B6 mice, s.c. Peptide X-PEG / Y-PEG (Examples 45-49); format: in vivo
Method: C57BI/6 mice were obtained from Jackson Laboratories and fed a diabetogenic diet from Research Diets, a high sucrose diet with 58% kcal from fat. Mice were single or group-housed on a 12:12-h light-dark cycle at 22° C. with free access to food and water. All studies were approved by and performed according to the guidelines of the Institutional Animal Care and Use Committee of the University of Cincinnati.
Whole body composition (fat and lean mass) was measured using NMR technology (EchoMRI, Houston, Tex.).
Energy intake and expenditure, as well as home-cage activity, were assessed by using a combined indirect calorimetry system (TSE Systems, Bad Homburg, Germany). Oxygen consumption and CO2 production were measured every 45 min for a total of 120 h (including 12 h of adaptation) to determine the respiratory quotient and energy expenditure. Food and water intake and meal patterns were determined continuously for 120 h at the same time as the indirect calorimetry assessments by integration of scales into the sealed cage environment. Meals were defined as food intake events with a minimum duration of 60 s, and a break of 300 s between food intake events. Home-cage locomotor activity was determined using a multidimensional infrared light beam system with beams scanning the bottom and top levels of the cage, and activity being expressed as beam breaks. Stationary motor activity (fidgeting) was defined as consecutive breaks of one single light beam at cage-bottom level, ambulatory movement as breaks of any two different light beams at cage-bottom level, and rearing as simultaneous breaks of light beams on both cage-bottom and the top level.
Blood was collected after a 6-h fast from tail veins using EDTA-coated Microvette tubes (Sarstedt, Nuremberg, Germany) and immediately chilled on ice. After 15 min of centrifugation at 3,000 g and 4° C., plasma was stored at −80° C. Plasma insulin was quantified by a radioimmunoassay from Linco (Sensitive Rat Insulin RIA; Linco Research, St. Charles, Mo.). Plasma TGs and cholesterol levels were measured by enzymatic assay kits (Thermo Electron, Waltham, Mass.). Samples were analyzed individually with the exception that pooled samples (0.25 ml) from 5 animals/group were subjected to fast-performance liquid chromatography (FPLC) gel filtration on two Superose 6 columns connected in series for lipoprotein separation. All assays were performed according to the manufacturer's instructions.
For the determination of glucose tolerance, mice were subjected to 6 h of fasting and injected intraperitoneally (i.p.) with 2 g glucose/kg body wt (50% D-glucose (Sigma) in 0.9% saline) for the glucose tolerance test (GTT). Tail blood glucose levels (mg/dl) were measured by using a hand-held glucometer (TheraSense Freestyle) before (0 min) and at 15, 30, 60, 90, and 120 min after injection.
The 40-kd pegylated peptides Peptides X-PEG and Y-PEG were used as single weekly subcutaneous (s.c) injections in diet-induced obese (D10) C57B6 mice.
Long-term effects of these lower doses on food intake (p=0.95; FIG. 29C) were less impressive than short-term effects with a higher dose (FIG. 27C).

[4] = Body weight of DIO mice after i.p. injection (Example 26); format: in vivo; details: 15 or 70 nmol/kg i.p., 7 days
Method: DIO mice were injected intraperitoneally with vehicle only or 15 or 70 nmol/kg of one of the following:
Body weight was measured before injection and at 1, 3, 5, and 7 days post-injection.

[5] = GLP-1 receptor knock out (GLP-1R−/−) mice on high-fat diet, one month; format: in vivo
[6] = tested on: Uncoupling protein I (UCP1); assay: UCP1 levels in brown adipose tissue; set-up: species or system mice; details: mouse, in vivo
[7] = 70 nmol/kg s.c. Days 0 and 7, Day 9

For “H(Aib)QGTFTSDYSKYLDEQAAKEFICWLMNT-amide [Peptide X-PEG]”, which “phosphorylation of hormone sensitive lipase (HSL) in white adipose tissue” value [1] is on record?
The value was 1.135±0.315.

And the “change in body weight” value [2]?
Its value is −11.15+/−0.88%.

And the “change in fat mass” value [2]?
Its value is −19.17+/−2.03%.

And the leptin [3, 7]?
Its leptin is 7308 ± 2927 pg/mL.

And the plasma triglycerides [3, 7]?
Its plasma triglycerides is “no significant effect on triglycerides”.

And the “blood glucose profile (AUC), i.p. glucose challenge” value ([3]; Day 3)?
The value was 13794±824.1.

What about the “Plasma C-peptide levels” value ([3]; after one month of treatment) of the same substance?
Its value is 624.7 pg/mL.

What about the plasma insulin ([3]; after one month of treatment) of the same substance?
Its plasma insulin is 1034 pg/mL.

And the total cholesterol ([3]; chronic s.c. treatment over 27 days)?
The total cholesterol was 106.9 mg/dL.

What about the “dose response of body weight and blood glucose” value ([3]; single s.c. 0-350 nmol/kg) of the same substance?
Its value is “linearly responsive, dose-dependent decreases in body weight and blood glucose”.

What about the Energy expenditure ([3]; weekly s.c. 70 nmol/kg) of the same substance?
Its Energy expenditure is 17.19±1.49 kcal/[kg*h].

What about the “change in fat mass” value ([3]; weekly s.c. 70 nmol/kg) of the same substance?
The value was −52.2%.

And the respiratory quotient ([3]; weekly s.c. 70 nmol/kg)?
Its respiratory quotient is 0.725±0.01.

What about the “Blood glucose levels, mean decrease” value ([3]; weekly s.c. 70 nmol/kg, from Day 3) of the same substance?
The value was −24.5%.

And the “decrease in body weight” value ([3]; weekly s.c. 70 nmol/kg, one month)?
The value was 20.1%.

What about the “ability to lower body weight” value [4] of the same substance?
Its value is “comparable ability to lower body weight”.

And the body weight [5]?
The body weight was “caused a reduction of body weight (p>0.05”.

And the food intake [5]?
Its food intake is “no effect on food intake”.

What about the “Uncoupling protein I (UCP1) levels in brown adipose tissue” value [6] of the same substance?
Its value is 2.167±0.429.
